Experimental findings from US10272095B2 (GlaxoSmithKline Intellectual Property Development Limited, priority 2015, dated 2019) are described below.

Structures can show the parent of a compound that is named as a salt.

This assay relates to NQO1 specific enzyme activity in BEAS-2B cells. Kind of assay: BEAS-2B NQO1 MTT assay. The format is cell-based. To be noted: Homo sapiens, BEAS-2B, 48 h, NQO1 specific enzyme activity induction in BEAS-2B cells, 48 hours; read-out: EC50. An excerpt: NAD(P)H:quinone oxidoreductase 1 (NQO1), also called DT diaphorase, is a homodimeric FAD-containing enzyme that catalyzes obligatory NAD(P)H-dependent two-electron reductions of quinones and protects cells against the toxic and neoplastic effects of free radicals and reactive oxygen species arising from one-electron reductions. The transcription of NQO1 is finely regulated by NRF2, and thus NQO1 activity is a good marker for NRF2 activation. On day one, frozen BEAS-2B cells (ATCC) are thawed in a water bath, counted, and re-suspended at a concentration of 250,000 cells/mL. Fifty microliters of cells are plated in 384 well black clear-bottomed plates. Plates are incubated at 37° C., 5% CO2 overnight. On day two, plates are centrifuged and 50 nL of compound or controls are added to the cells. Plates are then incubated at 37° C., 5% CO2 for 48 hours. On day four, medium is aspirated from the plate and crude cell lysates are made by adding 13 uL of 1× Cell Signaling Technologies lysis buffer with 1 Complete, Mini, EDTA-free Protease Inhibitor Tablet (Roche) for each 10 mL of lysis buffer. After lysis plates are incubated for 20 minutes at room temperature. Two microliters of lysate are removed for use in Cell Titer Glo assay (Promega) and MTT cocktail is prepared (Prochaska et. al. 1998) for measurement of NQO1 activity. Fifty microliters of MTT cocktail is added to each well, plate is centrifuged, and analyzed on an Envision plate reader (Perkin Elmer) using Absorbance 570 nm label for 30 minutes. Product formation is measured kinetically and the pEC50 of NQO1 specific activity induction is calculated by plotting the change in absorbance (Delta OD/min) versus the log of compound concentration followed by 3-parameter fitting.
EC50s<1 nM (+++++), EC50s 10 nM-1 nM (++++), EC50s 10-100 nM (+++), EC50s 100 nM-1 uM (++), EC50s 1 uM-10 uM (+), EC50s>10 uM (−), or were not determined (ND).
Usually EC50 stands for the concentration at which the effect is half-maximal. For the compound `Cc1c([C@@H](c2ccc3c(c2)[C@@H](N2Cc4ccccc4OC(C)(C)C2)CC3)C(C)(C)C(=O)O)ccc2c1nnn2C` (stereo in doubt) [Example 80, rel-(R)-3-(1,4-Dimethyl-1H-benzo[d][1,2,3]triazol-5-yl)-3-(rel-(S)-3-(2,2-dimethyl-2,3-dihydrobenzo[f][1,4]oxazepin-4(5H)-yl)-2,3-dihydro-1H-inden-5-yl)-2,2-dimethylpropanoic acid], the EC50 is 100 to 1000 nM.

For `COc1cc(C(CC(=O)O)c2ccc3c(c2)C(N2Cc4cc(C)ccc4O[C@H](C)C2)CC3)c(C)c2nnn(C)c12` (stereo partly drawn) [Example 39, 3-(3-((R)-2,7-Dimethyl-2,3-dihydrobenzo[f][1,4]oxazepin-4(5H)-yl)-2,3-dihydro-1H-inden-5-yl)-3-(7-methoxy-1,4-dimethyl-1H-benzo[d][1,2,3]triazol-5-yl)propanoic Acid, Formic Acid Salt], the EC50 lay in the range of 1 to 10 nM.

Regarding `CCCc1cn(CCC(c2ccc3c(c2)C(N2Cc4ccccc4OC(C)(C)C2)CC3)C(C)(C)C(=O)O)nn1` (centres unmarked) [Example 65, 3-(3-(2,2-Dimethyl-2,3-dihydrobenzo[f][1,4]oxazepin-4(5H)-yl)-2,3-dihydro-1H-inden-5-yl)-2,2-dimethyl-5-(4-propyl-1H-1,2,3-triazol-1-yl)pentanoic Acid, Trifluoroacetic Acid Salt], the EC50 was 10 to 100 nM.

As for `Cc1cc(F)ccc1C(c1ccc2c(c1)C(N1Cc3ccccc3OC(C)(C)C1)CC2)C(C)(C)C(=O)O` (centres unmarked) [Example 26, 3-(3-(2,2-Dimethyl-2,3-dihydrobenzo[f][1,4]oxazepin-4(5H)-yl)-2,3-dihydro-1H-inden-5-yl)-3-(4-fluoro-2-methylphenyl)-2,2-dimethylpropanoic Acid], the EC50 was 10 to 100 nM.

`Cc1c(C(CC(=O)O)c2ccc3c(c2)C(N2CCOc4ccccc4C2)CC3)ccc2c1nnn2C` (centres unmarked) [Example 58, 3-(3-(2,3-Dihydrobenzo[f][1,4]oxazepin-4(5H)-yl)-2,3-dihydro-1H-inden-5-yl)-3-(1,4-dimethyl-1H-benzo[d][1,2,3]triazol-5-yl)propanoic Acid, Formic Acid Salt]: the EC50 lay in the range of 100 to 1000 nM.

Turning to `CC[C@@H]1CN([C@H]2CCc3ccc([C@H](CC(=O)O)c4ccc5c(nnn5C)c4C)cc32)Cc2ccccc2O1` (relative stereo) [Example 81, rel-(S)-3-(1,4-Dimethyl-1H-benzo[d][1,2,3]triazol-5-yl)-3-(rel-(S)-3-((R)-2-ethyl-2,3-dihydrobenzo[f][1,4]oxazepin-4(5H)-yl)-2,3-dihydro-1H-inden-5-yl)propanoic Acid], the EC50 lay within 10 to 100 nM.

In the case of `CC[C@@H]1CN(C2CCc3ccc(C(c4ccc5c(nnn5C)c4C)C(C)(C)C(=O)O)cc32)Cc2cnccc2O1` (stereo partly drawn) [Example 37, 3-(1,4-Dimethyl-1H-benzo[d][1,2,3]triazol-5-yl)-3-(3-((R)-2-ethyl-2,3-dihydropyrido[3,4-f][1,4]oxazepin-4(5H)-yl)-2,3-dihydro-1H-inden-5-yl)-2,2-dimethylpropanoic Acid, Formic Acid Salt], the EC50 lay in the range of 1 to 10 nM.

On to `Cc1c([C@H](c2ccc3c(c2)[C@H](N2Cc4cnccc4OC(C)(C)C2)CC3)C(C)(C)C(=O)O)ccc2c1nnn2C` [Example 86, 3-(1,4-Dimethyl-1H-benzo[d][1,2,3]triazol-5-yl)-3-(3-(2,2-dimethyl-2,3-dihydropyrido[3,4-f][1,4]oxazepin-4(5H)-yl)-2,3-dihydro-1H-inden-5-yl)-2,2-dimethylpropanoic Acid], for which the EC50 is under 1 nM.

`Cc1c([C@H](c2ccc3c(c2)[C@H](N2Cc4ccncc4OC(C)(C)C2)CC3)C(C)(C)C(=O)O)ccc2c1nnn2C` (racemic) [Example 70, rac-(R)-3-(1,4-Dimethyl-1H-benzo[d][1,2,3]triazol-5-yl)-3-(rac-(S)-3-(2,2-dimethyl-2,3-dihydropyrido[4,3-f][1,4]oxazepin-4(5H)-yl)-2,3-dihydro-1H-inden-5-yl)-2,2-dimethylpropanoic acid, Trifluoroacetic acid salt]: the EC50 is 1 to 10 nM.

As for `Cc1c([C@H](c2ccc3c(c2)[C@@H](N2Cc4ccccc4OC(C)(C)C2)CC3)C(C)(C)C(=O)O)ccc2c1nnn2C` (stereo in doubt) [Example 78, rel-(S)-3-(1,4-Dimethyl-1H-benzo[d][1,2,3]triazol-5-yl)-3-(rel-(S)-3-(2,2-dimethyl-2,3-dihydrobenzo[f][1,4]oxazepin-4(5H)-yl)-2,3-dihydro-1H-inden-5-yl)-2,2-dimethylpropanoic acid], the EC50 is 1 to 10 nM.

`Cc1c(C(CC(=O)O)c2ccc3c(c2)C2C(CCN2C(=O)C(C)c2ccccc2)C3)ccc2c1nnn2C` (centres unmarked) [Example 9, 3-(1,4-Dimethyl-1H-1,2,3-benzotriazol-5-yl)-3-[1-(2-phenylpropanoyl)-1H,2H,3H,3aH,4H,8bH-indeno[1,2-b]pyrrol-7-yl]propanoic Acid]: the EC50 fell in the range of 1000 to 10000 nM.

For `Cc1c(C(CC(=O)O)c2ccc3c(c2)C(N2Cc4ccc(C#N)cc4OC(C)(C)C2)CC3)ccc2c1nnn2C` (centres unmarked) [Example 35, 3-(3-(8-Cyano-2,2-dimethyl-2,3-dihydrobenzo[f][1,4]oxazepin-4(5H)-yl)-2,3-dihydro-1H-inden-5-yl)-3-(1,4-dimethyl-1H-benzo[d][1,2,3]triazol-5-yl)propanoic Acid, Formic Acid Salt], the EC50 fell in the range of 1 to 10 nM.

`Cc1c(C(CC(=O)O)c2ccc3c(c2)C2C(CCN2C(=O)CC2CCCCC2)C3)ccc2c1nnn2C` (centres unmarked) [Example 7, 3-[1-(2-Cyclohexylacetyl)-1H,2H,3H,3aH,4H,8bH-indeno[1,2-b]pyrrol-7-yl]-3-(1,4-dimethyl-1H-1,2,3-benzotriazol-5-yl)propanoic Acid]: the EC50 fell in the range of 1000 to 10000 nM.

As to `Cc1c(C(CC(=O)O)c2ccc3c(c2)C(N2Cc4cnccc4OC(C)(C)C2)CC3)ccc2c1nnn2C` (centres unmarked) [Example 48, 3-(1,4-Dimethyl-1H-benzo[d][1,2,3]triazol-5-yl)-3-(3-(2,2-dimethyl-2,3-dihydropyrido[3,4-f][1,4]oxazepin-4(5H)-yl)-2,3-dihydro-1H-inden-5-yl)propanoic Acid, Formic Acid Salt], the EC50 lay in the range of 10 to 100 nM.

On to `Cc1c(C(c2ccc3c(c2)C(N2Cc4ccccc4O[C@H](C)C2)CC3)C(C)(C)C(=O)O)ccc2c1nnn2C` (stereo partly drawn) [Example 32, 3-(1,4-Dimethyl-1H-benzo[d][1,2,3]triazol-5-yl)-2,2-dimethyl-3-(3-((R)-2-methyl-2,3-dihydrobenzo[f][1,4]oxazepin-4(5H)-yl)-2,3-dihydro-1H-inden-5-yl)propanoic Acid, Formic Acid Salt], for which the EC50 was in the range of 1 to 10 nM.

Regarding `CCCCN(C)C(=O)N1CCC2Cc3ccc(C(CC(=O)O)c4ccc5c(nnn5C)c4C)cc3C21` (centres unmarked) [Example 14, 3-{1-[Butyl(methyl)carbamoyl]-1H,2H,3H,3aH,4H,8bH-indeno[1,2-b]pyrrol-7-yl}-3-(1,4-dimethyl-1H-1,2,3-benzotriazol-5-yl)propanoic Acid], the EC50 was 1000 to 10000 nM.

As to `CCn1nnc2c(C)c(C(CC(=O)O)c3ccc4c(c3)C3C(CCN3C(=O)OC(C)(C)C)C4)ccc21` (centres unmarked) [Example 16, 3-(1-(tert-Butoxycarbonyl)-1,2,3,3a,4,8b-hexahydroindeno[1,2-b]pyrrol-7-yl)-3-(1-ethyl-4-methyl-1H-benzo[d][1,2,3]triazol-5-yl)propanoic Acid], the EC50 lay within 100 to 1000 nM.
